In brackets after ≈: the same amount, converted by molar mass. Peptide text beside a SMILES is read from it.
Assays:
erythrocytes = settings: cited from earlier work
[1] = system: P. aeruginosa strain PAO1; assay: Scarification skin infection mouse model; assay type: in vivo, female CD-1 mice
Protocol: P. aeruginosa strain PAO1 was grown to an optical density at 600 nm (OD600) of 1 in tryptic soy broth medium. Subsequently cells were washed twice with sterile PBS, and resuspended to a final concentration of 5 × 10^7 CFU in 50 μL. To generate skin infection, female CD-1 mice (6 weeks old) were anesthetized with isoflurane and had their backs shaved. A superficial linear skin abrasion was made with a needle in order to damage the stratum corneum and upper layer of the epidermis. Five minutes after wounding, an aliquot of 50 μL containing 5 × 10^7 CFU of bacteria in PBS was inoculated over each defined area containing the scratch with a pipette tip. One day after the infection, peptides were administered to the infected area. Animals were euthanized and the area of scarified skin was excised 2 and 4 days post-infection, homogenized using a bead beater for 20 min (25 Hz), and serially diluted for CFU quantification. Two independent experiments were performed with four mice per group in each case. Statistical significance was assessed using a two-way ANOVA. Animals were maintained in accordance with the Guide for the Care and Use of Laboratory Animals in an AAALAC-accredited facility. All procedures were approved by the MIT’s Institutional Animal Care and Use Committee (IACUC), protocol number 1016-064-19.

E. coli ATCC 25922 [2] = assay: SYTOX green uptake assay (membrane permeabilization); assay type: cell-based, Escherichia coli; settings: 5 µM, positive control
Protocol: SG is impermeant to live cells and when the cell membrane is damaged, this dye penetrates into the cell and binds to intracellular DNA, due to its high-affinity to nucleic acids, leading to an increase in fluorescence. Exponentially growing bacteria (6 × 10^5 cfu mL^−1) were resuspended in PBS after centrifugation (1000 × g, 10 min, 4 °C) and washing steps. About 792 μL of the bacterial suspension was pre-incubated with 8 μL of 100 μM SG during 30 min at 37 °C in the dark. […] Results correspond to a representative experiment with negative (PBS) and positive (melittin) controls. Three independent experiments were performed.

E. coli ATCC 25922 [3] = assay: Membrane polarization assay with DiSC3(5); assay type: cell-based, Escherichia coli; settings: 5 µM, positive control
Protocol: When the cytoplasmic membrane is intact, the fluorescent probe DiSC3(5) accumulates into the cytoplasmic membrane and then aggregates, causing self-quenching of the fluorescence. In the presence of a membrane-depolarizing agent, DiSC3(5) is released into the medium, leading to an increase in fluorescence that can be monitored over time[59]. Briefly, exponentially growing bacteria were centrifuged (1000 × g, 10 min, 4 °C), washed with PBS, and resuspended in the same buffer to an A630 of 0.1; then 700 µL of bacteria were pre-incubated with 1 µM DiSC3(5) in the dark during 10 min at 37 °C, and then 100 µL of 1 mM KCl were added in order to equilibrate the cytoplasmic and external K^+ concentrations. […] Three independent experiments were performed and results correspond to a representative experiment with negative (PBS) and positive (melittin) controls.

[4] = system: P. aeruginosa H1001 (fliC::luxCDABE); assay type: cell-based, Pseudomonas aeruginosa; settings: SPOT-synthesized unpurified crude peptide (~70% purity); bioluminescent engineered P. aeruginosa; BM2 medium; 4 h, 37 °C; reduction of luminescence; 200 to 3 μg mL−1 tested
Protocol: A peptide array composed of 20 peptides (15 guavanins, 4 Pg-AMP1 fragments, and magainin 2) was designed and synthesized by Kinexus Bioinformatics Corporation (Vancouver, BC). Peptides were produced in a standard mass of 80 μg by using cellulose support in SPOT technology. The crude synthetic peptides were obtained from cellulose membrane discs that had already been treated with ammonia gas to release the peptides from the membrane. Peptides were then dissolved overnight in distilled water and subsequently evaluated for their biological activities, as described below.
The antimicrobial activity of the synthesized peptides was evaluated against an engineered luminescent P. aeruginosa H1001 (fliC::luxCDABE) strain in 96-well microplates. Aqueous solutions of peptides released from the cellulose spots were diluted twofold in BM2 medium [62 mM potassium phosphate buffer pH 7; 2 mM MgSO4; 10 μM FeSO4; 0.4% (wt/vol) glucose] down the eight wells of a 96-well plate, achieving a final volume of 25 μL in each well. Subsequently, 50 μL of overnight culture of P. aeruginosa H1001 (fliC::luxCDABE) were subcultured in 5 mL of fresh LB media and grown until they reached an OD600 of 0.4. This growing bacteria culture was then diluted 4:100 (v/v) into fresh BM2 media and 25 μL of this diluted bacterial culture was transferred to the microplate wells containing 25 μL of peptide solution. The final peptide concentrations tested ranged from 200 to 3 μg mL^−1. The plates were incubated for 4 h at 37 °C with constant shaking at 50 rpm. Luminescence was measured on a Tecan […]luor Plus Microplate Reader (Tecan US, Morrisville, NC). The antimicrobial activity was evaluated by the ability of the peptides to reduce the luminescence of P. aeruginosa-lux strain compared to untreated cells. The AMP magainin 2 and the carbapenem meropenem were used as positive controls and distilled water was used as a negative control.

human erythrocytes = assay: Hemolytic assay; settings: SPOT-synthesized crude peptides; human red blood cells in NaCl 0.85%, 1 h, 37 °C; hemoglobin release at 546 nm; highest concentration 200 μg mL−1; 100% of hemolysis was not observed
Protocol: Fresh human venous blood was collected from volunteers in Vacutainer collection tubes containing sodium heparin as an anticoagulant (BD Biosciences, Franklin Lakes, NJ). The blood was centrifuged applying 151 × g force (1500 rpm) and the serum was removed and the blood cells were replaced and washed three times with the same volume of sterile NaCl 0.85% solution. Concentrated red blood cells were diluted tenfold in NaCl 0.85% solution and then exposed at twofold dilutions of peptides for 1 h at 37 °C, at identical concentrations used for antimicrobial assays, in the ratio of 1:1 (v/v), achieving a final volume of 100 μL. The assay was carried out in 96-well polypropylene microtiter plates. The positive control wells contained 1% of Triton X-100, representing 100% cell lysis, and negative control wells contained sterile saline. Hemoglobin release was monitored chromogenically at 546 nm using a microplate reader.

Compound | MIC [4] | Hemolysis (human erythrocytes) | also measured
Pg-AMP1: guava glycine-rich antimicrobial peptide, UniProt P86030, template of the guavanins (RESPSSRMECYEQAERYGYGGYGGGRYGGGYGSGRGQPVGQGVERSHDDNRNQPR; UniProt P86030 1-55, looked up) | – | – | hemolytic activity (erythrocytes): hemolytic; anti-infective activity ([1]; 6.25 μg mL−1, 4 days post-infection): no activity; effect on CFU counts / bacterial load (two-way ANOVA) ([1]; doses 6.25, 25 and 100 µg mL−1, 4 days post-infection, two experiments, four mice per group): significant reduction of bacterial load only at higher concentrations; dose at which activity is kept after 4 days ([1]; wound infection mouse model): 25 µg/mL
melittin [reference compound] | – | – | SYTOX Green influx (membrane permeabilization) (E. coli ATCC 25922 [2]): rapid and maximal SG fluorescence signal; DiSC3(5) fluorescence change (membrane potential) (E. coli ATCC 25922 [3]): rapid increase in the fluorescence signal
CC[C@H](C)[C@H](NC(=O)[C@H](CO)NC(=O)[C@H](CCC(=O)O)NC(=O)[C@H](Cc1ccc(O)cc1)NC(=O)[C@@H](NC(=O)[C@H](CCC(N)=O)NC(=O)[C@@H](N)CCCNC(=N)N)[C@@H](C)CC)C(=O)N[C@@H](CCC(=O)O)C(=O)N[C@@H](CCC(N)=O)C(=O)N[C@@H](C)C(=O)N[C@@H](CC(C)C)C(=O)N[C@@H](CCCNC(=N)N)C(=O)N[C@@H](CCCNC(=N)N)C(=O)NCC(=O)N[C@@H](Cc1ccc(O)cc1)C(=O)N[C@@H](CCCNC(=N)N)C(=O)N[C@@H](CO)C(=O)N[C@@H](Cc1ccc(O)cc1)C(=O)N[C@@H](CCCNC(=N)N)C(=O)N[C@@H](CCCNC(=N)N)C(N)=O [Guavanin 7] (H-RQIYESIEQALRRGYRSYRR-NH2) | 200 µg/mL (≈ 76.9 µM) | > 200 µg/mL | –
CC[C@H](C)[C@H](NC(=O)[C@H](CCCNC(=N)N)NC(=O)[C@H](CC(N)=O)NC(=O)CNC(=O)[C@H](Cc1ccc(O)cc1)NC(=O)[C@H](CCCNC(=N)N)NC(=O)[C@H](CO)NC(=O)[C@H](C)NC(=O)[C@H](CCC(N)=O)NC(=O)[C@H](CCC(=O)O)NC(=O)[C@H](Cc1ccc(O)cc1)NC(=O)[C@H](CS)NC(=O)[C@H](CCCCN)NC(=O)[C@H](CCSC)NC(=O)[C@H](Cc1ccccc1)NC(=O)[C@H](CO)NC(=O)[C@@H](N)CCCNC(=N)N)C(=O)N[C@@H](CC(C)C)C(=O)N[C@@H](CCCNC(=N)N)C(=O)N[C@@H](CCCNC(=N)N)C(N)=O [Guavanin 14] (H-RSFMKCYEQASRYGNRILRR-NH2) | 12.5 µg/mL (≈ 4.93 µM) | > 200 µg/mL | –
CSCC[C@H](NC(=O)[C@H](CC(C)C)NC(=O)[C@H](Cc1ccc(O)cc1)NC(=O)[C@@H](N)CCCNC(=N)N)C(=O)N[C@@H](CCC(=O)O)C(=O)N[C@@H](Cc1ccc(O)cc1)C(=O)N[C@@H](C)C(=O)N[C@@H](CCC(=O)O)C(=O)N[C@@H](CCC(N)=O)C(=O)N[C@@H](C)C(=O)N[C@@H](CCCCN)C(=O)N[C@@H](CCCNC(=N)N)C(=O)N[C@@H](CC(=O)O)C(=O)N[C@@H](C)C(=O)N[C@@H](CCCCN)C(=O)N[C@@H](CCCNC(=N)N)C(=O)N[C@@H](C)C(=O)N[C@@H](Cc1ccc(O)cc1)C(=O)N[C@@H](CCCNC(=N)N)C(=O)N[C@@H](CCCNC(=N)N)C(N)=O [Guavanin 10] (H-RYLMEYAEQAKRDAKRAYRR-NH2) | 200 µg/mL (≈ 77.7 µM) | > 200 µg/mL | –
CSCC[C@H](NC(=O)[C@H](CCCNC(=N)N)NC(=O)[C@H](CO)NC(=O)[C@@H](N)CO)C(=O)N[C@@H](CCC(=O)O)C(=O)N[C@@H](CS)C(=O)N[C@@H](Cc1ccc(O)cc1)C(=O)N[C@@H](CCC(=O)O)C(=O)N[C@@H](CCC(N)=O)C(=O)N[C@@H](C)C(=O)N[C@@H](CCC(=O)O)C(=O)N[C@@H](CCCNC(=N)N)C(=O)N[C@@H](Cc1ccc(O)cc1)C(=O)NCC(=O)N[C@@H](Cc1ccc(O)cc1)C(=O)NCC(=O)NCC(=O)N[C@@H](Cc1ccc(O)cc1)C(=O)NCC(=O)NCC(N)=O [Fragment 1 (α-helix)] (H-SSRMECYEQAERYGYGGYGG-NH2) | > 200 µg/mL | > 200 µg/mL | –
CSCC[C@H](NC(=O)[C@H](Cc1ccc(O)cc1)NC(=O)[C@H](C)NC(=O)[C@@H](N)CCCNC(=N)N)C(=O)N[C@@H](CCC(=O)O)C(=O)N[C@@H](C)C(=O)N[C@@H](CC(C)C)C(=O)N[C@@H](CCCNC(=N)N)C(=O)N[C@@H](CCC(N)=O)C(=O)N[C@@H](C)C(=O)N[C@@H](CCC(=O)O)C(=O)N[C@@H](CCCNC(=N)N)C(=O)N[C@@H](CC(C)C)C(=O)NCC(=O)N[C@@H](CC(N)=O)C(=O)N[C@@H](CCCNC(=N)N)C(=O)N[C@H](C(=O)N[C@@H](C)C(=O)N[C@@H](CCCNC(=N)N)C(=O)N[C@@H](CCCNC(=N)N)C(N)=O)[C@@H](C)O [Guavanin 9] (H-RAYMEALRQAERLGNRTARR-NH2) | > 200 µg/mL | > 200 µg/mL | –
CSCC[C@H](NC(=O)[C@H](Cc1ccc(O)cc1)NC(=O)[C@H](CCC(N)=O)NC(=O)[C@@H](N)CCCNC(=N)N)C(=O)N[C@@H](CCCNC(=N)N)C(=O)N[C@@H](Cc1ccc(O)cc1)C(=O)N[C@@H](CC(C)C)C(=O)N[C@@H](CCC(=O)O)C(=O)N[C@@H](CCC(N)=O)C(=O)N[C@@H](C)C(=O)N[C@@H](CCC(=O)O)C(=O)N[C@@H](CCCNC(=N)N)C(=O)N[C@@H](Cc1ccc(O)cc1)C(=O)N[C@H](C(=O)N[C@@H](CC(N)=O)C(=O)N[C@@H](CCCNC(=N)N)C(=O)N[C@@H](CC(N)=O)C(=O)N[C@@H](CC(C)C)C(=O)N[C@@H](CCCNC(=N)N)C(=O)N[C@@H](CCCNC(=N)N)C(N)=O)C(C)C [Guavanin 4] (H-RQYMRYLEQAERYVNRNLRR-NH2) | 100 µg/mL (≈ 36.8 µM) | > 200 µg/mL | –
CC[C@H](C)[C@H](NC(=O)[C@H](CC(C)C)NC(=O)[C@H](CCC(=O)O)NC(=O)[C@H](CCSC)NC(=O)[C@H](CC(C)C)NC(=O)[C@H](CCC(N)=O)NC(=O)[C@@H](N)CCCNC(=N)N)C(=O)N[C@@H](CCC(=O)O)C(=O)N[C@@H](CCC(N)=O)C(=O)N[C@@H](C)C(=O)N[C@@H](CCC(=O)O)C(=O)N[C@@H](CCCNC(=N)N)C(=O)N[C@@H](Cc1ccc(O)cc1)C(=O)NCC(=O)N[C@@H](CC(N)=O)C(=O)N[C@@H](CCCNC(=N)N)C(=O)N[C@@H](Cc1ccccc1)C(=O)N[C@@H](Cc1ccc(O)cc1)C(=O)N[C@@H](CCCNC(=N)N)C(=O)N[C@@H](CCCNC(=N)N)C(N)=O [Guavanin 11] (H-RQLMELIEQAERYGNRFYRR-NH2) | > 200 µg/mL | > 200 µg/mL | –

Source: article PMC5902452, “In silico optimization of a guava antimicrobial peptide enables combinatorial exploration for peptide design” (Nature Communications, 2018)
